Assay results published in ChEMBL document CHEMBL1201862, “PubChem BioAssay data set” (2004).
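Step 1: Grow cells in 96-well plates. Step 2: Expose to compound for 48 hours at 5 concentrations. Step 3: Interpolate endpoints linearly; if unreached, use highest concentration. Here, GI50 denotes the concentration required for 50% inhibition of growth.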 Activity calls are given as the source filed them. Cut-off read from the data, not from the text of the source: active = GI50 up to about 1.1 µM and inactive = higher.

Assays:
Assay in all cases: NCI tumour cell line growth inhibition, 48 h
DMS-114 = tested on: DMS-114
SNB-78 = tested on: SNB-78
OVCAR-5 = tested on: OVCAR-5
KM12 = tested on: KM12
DMS-273 = tested on: DMS-273
UACC-62 = tested on: UACC-62
MOLT-4 = tested on: MOLT-4
SW-620 = tested on: SW-620
A549 = tested on: A549
SK-OV-3 = tested on: SK-OV-3
CCRF-CEM = tested on: CCRF-CEM
NCI-H226 = tested on: NCI-H226
SK-MEL-2 = tested on: SK-MEL-2
SF-295 = tested on: SF-295
COLO 205 = tested on: COLO 205
HT-29 = tested on: HT-29
SN12C = tested on: SN12C
HCT-116 = tested on: HCT-116
U-251 = tested on: U-251
A498 = tested on: A498
CAKI-1 = tested on: CAKI-1
SF-268 = tested on: SF-268
HCC 2998 = tested on: HCC 2998
OVCAR-3 = tested on: OVCAR-3
TK-10 = tested on: TK-10
EKVX = tested on: EKVX
SF-539 = tested on: SF-539
NCI-H23 = tested on: NCI-H23
K562 = tested on: K562
LXFL 529 = tested on: LXFL 529
UO-31 = tested on: UO-31
M19-MEL = tested on: M19-MEL
DLD-1 = tested on: DLD-1
ACHN = tested on: ACHN
LOX IMVI = tested on: LOX IMVI
HL-60 = tested on: HL-60
UACC-257 = tested on: UACC-257
IGROV-1 = tested on: IGROV-1
OVCAR-4 = tested on: OVCAR-4
RPMI-8226 = tested on: RPMI-8226
786-0 = tested on: 786-0
M14 = tested on: M14
KM-20L2 = tested on: KM-20L2
RXF 393 = tested on: RXF 393
SR = tested on: SR
RXF 631 = tested on: RXF 631
NCI-H460 = tested on: NCI-H460
HOP-62 = tested on: HOP-62
SNB-19 = tested on: SNB-19
HCT-15 = tested on: HCT-15
Malme-3M = tested on: Malme-3M
OVCAR-8 = tested on: OVCAR-8
NCI-H522 = tested on: NCI-H522
HOP-18 = tested on: HOP-18
SNB-75 = tested on: SNB-75
SK-MEL-28 = tested on: SK-MEL-28
XF498 = tested on: XF498
HOP-92 = tested on: HOP-92

Cc1cc(Br)cc(C)c1NC(=O)C(=O)C(C(=O)c1ccc(Cl)c(Cl)c1)C1OC(=O)c2ccccc21 (stereo not drawn)
GI50 (DMS-114): 24.3 µM (inactive) | GI50 (SNB-78): 53.3 µM (inactive) | GI50 (OVCAR-5): 21.7 µM (inactive) | GI50 (KM12): 36.8 µM (inactive) | GI50 (DMS-273): 63.2 µM (inactive) | GI50 (UACC-62): 59.8 µM (inactive) | GI50 (MOLT-4): 12.6 µM (inactive) | GI50 (SW-620): > 100 µM (inactive) | GI50 (A549): 74.3 µM (inactive) | GI50 (SK-OV-3): 49.5 µM (inactive) | GI50 (CCRF-CEM): 35.2 µM (inactive) | GI50 (NCI-H226): 72.6 µM (inactive) | GI50 (SK-MEL-2): > 100 µM (inactive) | GI50 (SF-295): 90.6 µM (inactive) | GI50 (COLO 205): 47.5 µM (inactive) | GI50 (HT-29): 29.9 µM (inactive) | GI50 (SN12C): 79.3 µM (inactive) | GI50 (HCT-116): 48.4 µM (inactive) | GI50 (U-251): 44.6 µM (inactive) | GI50 (A498): 26.3 µM (inactive) | GI50 (CAKI-1): 34.8 µM (inactive) | GI50 (SF-268): 39.8 µM (inactive) | GI50 (HCC 2998): > 100 µM (inactive) | GI50 (OVCAR-3): 37.1 µM (inactive) | GI50 (TK-10): 70.8 µM (inactive) | GI50 (EKVX): 4.19 µM (inactive) | GI50 (SF-539): 25.2 µM (inactive) | GI50 (NCI-H23): 95.7 µM (inactive) | GI50 (K562): 28.2 µM (inactive) | GI50 (LXFL 529): 59.3 µM (inactive) | GI50 (UO-31): 26.2 µM (inactive) | GI50 (M19-MEL): 75.2 µM (inactive) | GI50 (DLD-1): 12.4 µM (inactive) | GI50 (ACHN): 28.5 µM (inactive) | GI50 (LOX IMVI): > 100 µM (inactive) | GI50 (HL-60): 24.5 µM (inactive) | GI50 (UACC-257): 36.7 µM (inactive) | GI50 (IGROV-1): 91.2 µM (inactive) | GI50 (OVCAR-4): > 100 µM (inactive) | GI50 (RPMI-8226): 42.2 µM (inactive) | GI50 (786-0): 86.1 µM (inactive) | GI50 (M14): > 100 µM (inactive) | GI50 (KM-20L2): 34.6 µM (inactive) | GI50 (RXF 393): > 100 µM (inactive) | GI50 (SR): 7.71 µM (inactive) | GI50 (RXF 631): 29.6 µM (inactive) | GI50 (NCI-H460): > 100 µM (inactive) | GI50 (HOP-62): 43.6 µM (inactive) | GI50 (SNB-19): 82 µM (inactive) | GI50 (HCT-15): 50.2 µM | GI50 (Malme-3M): > 100 µM (inactive) | GI50 (OVCAR-8): > 100 µM (inactive) | GI50 (NCI-H522): 36.5 µM (inactive)

O=c1oc2cc(O)ccc2c2[nH]c3cc(O)ccc3c12
GI50 (DMS-114): 21.1 µM (inactive) | GI50 (SNB-78): 43.7 µM (inactive) | GI50 (KM12): 20.9 µM (inactive) | GI50 (DMS-273): 21.6 µM (inactive) | GI50 (UACC-62): 15.5 µM (inactive) | GI50 (MOLT-4): 34 µM (inactive) | GI50 (SW-620): 34 µM (inactive) | GI50 (A549): 42.7 µM (inactive) | GI50 (SK-OV-3): 22.2 µM (inactive) | GI50 (HOP-18): 50.5 µM (inactive) | GI50 (CCRF-CEM): 30.8 µM (inactive) | GI50 (NCI-H226): 21.4 µM (inactive) | GI50 (SK-MEL-2): 19.1 µM (inactive) | GI50 (SF-295): 66.8 µM (inactive) | GI50 (COLO 205): 23.9 µM (inactive) | GI50 (HT-29): 35.1 µM (inactive) | GI50 (SN12C): 33.3 µM (inactive) | GI50 (HCT-116): 17.4 µM (inactive) | GI50 (U-251): 21.4 µM (inactive) | GI50 (A498): 36.1 µM (inactive) | GI50 (SF-268): 22.8 µM (inactive) | GI50 (HCC 2998): 22.5 µM (inactive) | GI50 (OVCAR-3): 20.7 µM (inactive) | GI50 (TK-10): 36.3 µM (inactive) | GI50 (EKVX): 26.5 µM (inactive) | GI50 (SF-539): 18.9 µM (inactive) | GI50 (NCI-H23): 24.5 µM (inactive) | GI50 (K562): 45.9 µM (inactive) | GI50 (LXFL 529): 27.1 µM (inactive) | GI50 (UO-31): 26.2 µM (inactive) | GI50 (M19-MEL): 27.9 µM (inactive) | GI50 (DLD-1): 30.2 µM (inactive) | GI50 (ACHN): 22.7 µM (inactive) | GI50 (LOX IMVI): 18.5 µM (inactive) | GI50 (HL-60): 21.8 µM (inactive) | GI50 (SNB-75): 16.3 µM (inactive) | GI50 (SK-MEL-28): 31.7 µM (inactive) | GI50 (UACC-257): 35.2 µM (inactive) | GI50 (IGROV-1): 23.1 µM (inactive) | GI50 (XF498): 25.5 µM (inactive) | GI50 (OVCAR-4): 37.4 µM (inactive) | GI50 (RPMI-8226): 78 µM (inactive) | GI50 (786-0): 30.8 µM (inactive) | GI50 (M14): 36.4 µM (inactive) | GI50 (KM-20L2): 37.2 µM (inactive) | GI50 (RXF 393): 20.6 µM (inactive) | GI50 (SR): 21.2 µM (inactive) | GI50 (NCI-H460): 33 µM (inactive) | GI50 (HOP-62): 24.3 µM (inactive) | GI50 (SNB-19): 18.6 µM (inactive) | GI50 (HCT-15): 27 µM | GI50 (Malme-3M): 32.6 µM (inactive) | GI50 (OVCAR-8): 27.2 µM (inactive) | GI50 (HOP-92): 32.1 µM (inactive) | GI50 (NCI-H522): 11.7 µM (inactive)
